Measured values from the NIST ThermoML archive (doi:10.1021/je5001389).
± gives the expanded uncertainty stated by the source.

Assays:
[1] = DTA
[2] = Molar enthalpy of transition or fusion; details: DSC

Triple point temperature ([1]; Crystal 1) [K]	Triple point temperature ([1]; Crystal 2) [K]	Molar enthalpy of transition or fusion ([2]; Crystal 1) [kcal/mol]	Molar enthalpy of transition or fusion ([2]; Crystal 2) [kcal/mol]	SMILES	Triple point temperature ([1]; Crystal) [K]	Molar enthalpy of transition or fusion ([2]; Crystal) [kcal/mol]
–	–	–	–	c1ccc(-c2ccccc2)cc1 [biphenyl]	340.69 ± 0.5	4.45 ± 0.136
–	–	–	–	c1ccc2c(c1)oc1ccccc12 [dibenzo[bd]furan]	353.87 ± 0.5	5.33 ± 0.16
329.21 ± 0.5	326.4 ± 0.5	16.3 ± 0.43	8.78 ± 0.239	CCCCCCCCCCCCCCCCCCCCCCCCCC [hexacosane]	–	–
